Source: patent publication US20190375708A1 (VenatoRx Pharmaceuticals, Inc., priority 2018, published 2019)

How the values were obtained:
[1] = system: HBV replication in HepAD38 cells; assay: Anti-HBV replication assay in HepAD38 cells (QPCR of extracellular HBV DNA); assay type: cell-based, HBV (genotype D, serotype ayw); settings: Hepatitis B virus, 168 h, 7 days incubation, extracellular HBV DNA by QPCR, read-out: Anti-HBV EC50
Experimental: The anti-HBV activity of the Capsid Assembly Modulators (CAMs) was evaluated in a cell based assay utilizing the human hepatoma cell line HepAD38 (Ladner, S K., et al., 1998). HepAD38 cells were derived from the parental line, HepG2, that were stably transfected with a construct containing an HBV genome (genotype D, serotype ayw) under the control of a tetracycline repressible CMV promoter. Upon removal of tetracycline, viral pre-genomic RNA (pgRNA) and mRNAs are expressed and infectious viral particles are assembled and secreted into the culture medium providing a reliable, robust system to measure multiple steps of the HBV life cycle. Disruption of capsid formation results in reduced levels of DNA-containing virus particles that are released into the culture supernatant. To quantify the effect of CAMs on HBV replication, we developed a sensitive QPCR-based assay that measures extracellular HBV DNA levels upon treatment of HepAD38 cells with various concentrations of test compounds.
HepAD38 cells were maintained in DMEM/F12 medium containing 10% FBS, 400 μg/mL G418 and 0.3 μg/mL tetracycline (tet+ media) to maintain repression of HBV replication. To evaluate each compound, HepAD38 cells were seeded into 24-well collagen coated culture plates (Corning BioCoat) at a density of 200,000 cells per well in 1 mL of medium without tetracycline (tet-media) and allowed to adhere overnight at 37° C., 5% CO2 in a humidified incubator. The following day, media was refreshed and a dose range of each compound was prepared by performing 1 log10 serial dilutions in 100% DMSO at 200× the desired assay concentration. Dilutions were then added to the cells resulting in a final dose range of 1 μM to 10 μM and the plates were returned to the incubator. Following 7 days of incubation, culture supernatants were harvested and HBV DNA levels were evaluated by QPCR and compared to the vehicle treated control wells (i.e. DMSO alone).
To quantify HBV DNA levels, cell culture supernatants were diluted 1:10 in sterile, nuclease-free water (Gibco). The diluted supernatants were subsequently added to a PCR master mix containing 1× Roche Light Cycler Master Mix, 0.5 μM forward primer, 0.5 μM reverse primer (Fwd: 5′-[…] (SEQ ID NO 1); Rev: 5′-[…] (SEQ ID NO 2)), 0.2 μM Roche Universal Probe Library Probe 25. The volume was brought to 20 μL with nuclease-free water and amplification of the HBV target sequence was performed using a Roche LightCycler 480 QPCR instrument. PCR extended out to 45 cycles with each cycle consisting of a denaturation step at 95° C. for 10 sec., followed by an annealing step at 60° C. for 10 sec. and a brief extension step at 72° C. for 1 sec.
Extracellular HBV DNA levels, expressed in copies/mL, were determined by comparison to a standard curve (10^2-10^9 copies/mL) using the Roche LightCycler analysis software. These values were subsequently converted to percent inhibition of HBV replication by dividing the HBV DNA levels in the experimental samples with those obtained from the vehicle control (˜1-2×10^5 copies/mL). Potency, expressed as an EC50 (the effective concentration required to inhibit 50% of HBV replication), was calculated from the dose-response curve using a 4-parameter non-linear regression analysis (GraphPad Prism). The nucleoside analog inhibitor entecavir was used as a positive control to validate each assay run. The EC50 value of entecavir in the HepAD38 assay was 0.5 nM, as previously reported in the literature.

[2] = In vitro cytotoxicity assay (MTT cell viability) in HepG2 cells; assay type: cell-based, human; settings: human
Experimental: To evaluate antiviral selectivity, the cytotoxic activity of each compound was determined using a standard cell viability assay performed on the parental HepG2 cell line. Cell viability was determined by measuring the conversion of 3-(4,5-dimethylthiazol-2-yl)-2,5-diphenyltetrazolium bromide (MTT) to the insoluble formazan salt crystal that occurs in live cells. Briefly, HepG2 cells were seeded in 96-well plates at a density of 20,000 cells per well in EMEM+10% FBS (complete growth medium) and allowed to adhere overnight in a 37° C., 5% CO2 humidified incubator. The next day, test agents were prepared by performing 8 half-log10 serial dilutions in 100% DMSO at 200× the final desired concentration in the assay. Compounds were tested over a range of concentrations from 30 μM to 1.0 nM in the assay. HepG2 cells were incubated in the presence of various concentrations of CAMs for 7 days in a 37° C., 5% CO2 humidified incubator. At the completion of the 7-day incubation period, MTT reagent was added to each well and the mixture was incubated for an additional 3-4 hours. At the completion of the incubation period, all wells were aspirated to remove the culture medium. The formazan crystals were solubilized from the cell monolayers with 100% DMSO. Plates were briefly mixed on an orbital shaker and absorbance was measured at 492 nm using a Perkin-Elmer EnVision multi-label plate reader. All absorbance values were converted to a percentage of the signal obtained from the vehicle treated controls. Absorbance values at 492 nm are directly proportional to the number of viable cells present in the sample. A CC50 value (cytotoxic concentration that results in loss of 50% cell viability) was calculated from the dose-response curve by 4-parameter, non-linear regression analysis using the GraphPad Prism software. The positive control compound, staurosporine, reduced the viability of HepG2 cells in a dose-dependent manner (CC50=100 nM).

Cc1cc(NC(=O)c2c(C)c(C(=O)C(=O)NC3(C(F)(F)F)CCC3)n(C)c2C)ccc1F [Example 236, N-(4-fluoro-3-methylphenyl)-1,2,4-trimethyl-5-(2-oxo-2-((1-(trifluoromethyl)cyclobutyl)amino)acetyl)-1H-pyrrole-3-carboxamide]
EC50 [1]: < 50 nM | CC50 at 7 days [2]: 5000 to 30000 nM

Cc1cc(NC(=O)c2c(C)c(C(=O)C(=O)N[C@H]3C[C@H](O)C34CCOCC4)n(C)c2C)ccc1F [Example 620, N-(4-fluoro-3-methylphenyl)-5-(2-(((1S,3S)-3-hydroxy-7-oxaspiro[3.5]nonan-1-yl)amino)-2-oxoacetyl)-1,2,4-trimethyl-1H-pyrrole-3-carboxamide]
EC50 [1]: < 50 nM | CC50 at 7 days [2]: > 30000 nM

CC[C@@H](CO)NC(=O)C(=O)c1c(OC)c(C(=O)Nc2ccc(F)c(F)c2)c(C)n1C [Example 385, (S)-N-(3,4-difluorophenyl)-5-(2-((1-hydroxybutan-2-yl)amino)-2-oxoacetyl)-4-methoxy-1,2-dimethyl-1H-pyrrole-3-carboxamide]
EC50 [1]: > 1000 nM | CC50 at 7 days [2]: > 30000 nM

Cc1cc(NC(=O)c2c(C)c(C(=O)C(=O)NCC(C)(C)O)n3c2CCCC3)ccc1F [Example 444, N-(4-fluoro-3-methylphenyl)-3-(2-((2-hydroxy-2-methylpropyl)amino)-2-oxoacetyl)-2-methyl-5,6,7,8-tetrahydroindolizine-1-carboxamide]
EC50 [1]: < 50 nM | CC50 at 7 days [2]: 5000 to 30000 nM

Cc1cc(NC(=O)c2c(C)c(C(=O)C(=O)N[C@@H]3CC[C@H](O)[C@H]3O)n(C)c2C)ccc1F [Example 151, 5-(2-(((1R,2S,3S)-2,3-dihydroxycyclopentyl)amino)-2-oxoacetyl)-N-(4-fluoro-3-methylphenyl)-1,2,4-trimethyl-1H-pyrrole-3-carboxamide]
EC50 [1]: < 50 nM | CC50 at 7 days [2]: > 30000 nM

CC(C)(CO)NC(=O)C(=O)c1cc(C(=O)Nc2ccc(F)c(C(F)F)c2)c2n1CCCC2 [Example 429, N-(3-(difluoromethyl)-4-fluorophenyl)-3-(2-((1-hydroxy-2-methylpropan-2-yl)amino)-2-oxoacetyl)-5,6,7,8-tetrahydroindolizine-1-carboxamide]
EC50 [1]: 50 to 499 nM | CC50 at 7 days [2]: > 30000 nM

Cc1cc(NC(=O)c2c(C)c(C(=O)C(=O)N[C@@H]3CCCC[C@H]3O)n(C)c2C)cnc1F [Example 162, N-(6-fluoro-5-methylpyridin-3-yl)-5-(2-(((1R,2R)-2-hydroxycyclohexyl)amino)-2-oxoacetyl)-1,2,4-trimethyl-1H-pyrrole-3-carboxamide]
EC50 [1]: 50 to 499 nM | CC50 at 7 days [2]: > 30000 nM

Cc1c(C(=O)Nc2cccc(C(F)F)c2)c(C)n(C)c1C(=O)C(=O)N[C@H]1CC[C@@H](O)CC1 [Example 690, N-(3-(difluoromethyl)phenyl)-5-(2-(((1s,4s)-4-hydroxycylcohexyl)amino)-2-oxoacetyl)-1,2,4-trimethyl-1H-pyrrole-3-carboxamide]
EC50 [1]: < 50 nM | CC50 at 7 days [2]: > 30000 nM

Cc1c(C(=O)Nc2ccc(F)nc2)c(C)n(C)c1C(=O)C(=O)N[C@H](C)C(F)(F)F [Example 166, (R)-N-(6-fluoropyridin-3-yl)-1,2,4-trimethyl-5-(2-oxo-2-((1,1,1-trifluoropropan-2-yl)amino)acetyl)-1H-pyrrole-3-carboxamide]
EC50 [1]: < 50 nM | CC50 at 7 days [2]: > 30000 nM

Cc1c(C(=O)Nc2ccc(F)c(F)c2)c(C)n(C)c1C(=O)C(=O)NC(C)(C)C [Example 4, 5-(2-(tert-butylamino)-2-oxoacetyl)-N-(3,4-difluorophenyl)-1,2,4-trimethyl-1H-pyrrole-3-carboxamide]
EC50 [1]: < 50 nM | CC50 at 7 days [2]: > 30000 nM

Cc1cc(NC(=O)c2c(C)c(C(=O)C(=O)Nc3cccnc3)n3c2CCCC3)ccc1F [Example 739, N-(4-fluoro-3-methylphenyl)-2-methyl-3-(2-oxo-2-(pyridin-3-ylamino)acetyl)-5,6,7,8-tetrahydroindolizine-1-carboxamide]
EC50 [1]: 50 to 499 nM | CC50 at 7 days [2]: > 30000 nM

O=C(NC1(CO)CC1)C(=O)c1c(Cl)c(C(=O)Nc2ccc(F)c(Cl)c2)c2n1CCCC2 [Example 501, 2-chloro-N-(3-chloro-4-fluorophenyl)-3-(2-((1-(hydroxymethyl)cyclopropyl)amino)-2-oxoacetyl)-5,6,7,8-tetrahydroindolizine--1 carboxamide]
EC50 [1]: 50 to 499 nM | CC50 at 7 days [2]: 5000 to 30000 nM

CNC(=O)[C@H](NC(=O)C(=O)c1c(C)c(C(=O)Nc2ccc(F)c(C)c2)c(C)n1C)[C@@H](C)O [Example 62, N-(4-fluoro-3-methylphenyl)-5-(2-(((2R,3R)-3-hydroxy-1-(methylmaino)-1-oxobutan-2-yl)amino)-2-oxoacetyl)-1,2,4-trimethyl-1H-pyrrole-3-carboxamide]
EC50 [1]: < 50 nM | CC50 at 7 days [2]: > 30000 nM

COCC(C)(C)NC(=O)C(=O)c1c(C)c(C(=O)Nc2cnc(F)c(C)c2)c(C)n1CCF [Example 226, N-(6-fluoro-5-methylpyridin-3-yl)-1-(2-fluoroethyl)-5-(2-((1-methoxy-2-methylpropan-2-yl)amino)-2-oxoacetyl)-2,4-dimethyl-1H-pyrrole-3-carboxamide]
EC50 [1]: 500 to 1000 nM | CC50 at 7 days [2]: > 30000 nM

Cc1cc(NC(=O)c2c(C)c(C(=O)C(=O)NC(C)(C)C)n(C)c2C)ccc1F [Example 2, 5-(2-(tert-butylamino)-2-oxoacetyl)-N-(4-fluoro-3-methylphenyl)-1,2,4-trimethyl-1H-pyrrole-3-carboxamide]
EC50 [1]: < 50 nM | CC50 at 7 days [2]: > 30000 nM

Cc1c(C(=O)Nc2ccc(F)c(F)c2)c(C)n(C)c1C(=O)C(=O)Nc1ccc(F)cn1 [Example 295, N-(3,4-difluorophenyl)-5-(2-((5-fluoropyridin-2-yl)amino)-2-oxoacetyl)-1,2,4-trimethyl-1H-pyrrole-3-carboxamide]
EC50 [1]: < 50 nM | CC50 at 7 days [2]: 5000 to 30000 nM

Cc1c(C(=O)Nc2ccc(F)c(Cl)c2)c2n(c1C(=O)C(=O)NC1(CO)CC1)CCCC2 [Example 453, N-(3-chloro-4-fluorophenyl)-3-(2-((1-(hydroxymethyl)cyclopropyl)amino)-2-oxoacetyl)-2-methyl-5,6,7,8-tetrahydroindolizine-1-carboxamide]
EC50 [1]: 50 to 499 nM | CC50 at 7 days [2]: > 30000 nM

Cc1cc(NC(=O)c2c(C)c(C(=O)C(=O)NCCN3CCOCC3)n(C)c2C)ccc1F [Example 270, N-(4-fluoro-3-methylphenyl)-1,2,4-trimethyl-5-(2-((2-morpholinoethyl)amino)-2-oxoacetyl)-1H-pyrrole-3-carboxamide]
EC50 [1]: < 50 nM | CC50 at 7 days [2]: > 30000 nM
